From ChEMBL document CHEMBL1130155, “Synthesis and structure-activity relationships of potent thrombin inhibitors: piperazides of 3-amidinophenylalanine” (J Med Chem, 1997)
Blank lines part the entries; values can stand above or below the compound they belong to.

Experiments:
[1] = target: T1, Prothrombin (Bos taurus, UniProt P00735); assay: Inhibitory activity against thrombin.
[2] = target: Vitamin K-dependent protein C (Homo sapiens, UniProt P04070); assay: Inhibitory activity against Activated protein C
Vitamin K-dependent protein C, sequence (P04070 43-197 limits assumed): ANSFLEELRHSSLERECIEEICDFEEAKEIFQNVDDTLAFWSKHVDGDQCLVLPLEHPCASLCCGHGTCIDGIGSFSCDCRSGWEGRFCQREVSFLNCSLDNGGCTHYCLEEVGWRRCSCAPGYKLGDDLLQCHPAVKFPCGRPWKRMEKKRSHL
Vitamin K-dependent protein C, sequence (P04070 212-461 limits assumed): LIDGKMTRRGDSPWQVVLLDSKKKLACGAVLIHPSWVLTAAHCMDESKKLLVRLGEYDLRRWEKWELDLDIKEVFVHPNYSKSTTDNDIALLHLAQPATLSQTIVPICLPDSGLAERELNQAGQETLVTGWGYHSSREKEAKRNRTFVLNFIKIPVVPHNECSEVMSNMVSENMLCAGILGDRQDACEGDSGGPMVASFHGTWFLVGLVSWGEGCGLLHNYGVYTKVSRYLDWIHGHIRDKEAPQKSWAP

[3] = target: Coagulation factor X (Bos taurus, UniProt P00743); assay: Inhibitory activity against coagulation factor X.
Coagulation factor X, sequence (P00743 41-180 limits assumed): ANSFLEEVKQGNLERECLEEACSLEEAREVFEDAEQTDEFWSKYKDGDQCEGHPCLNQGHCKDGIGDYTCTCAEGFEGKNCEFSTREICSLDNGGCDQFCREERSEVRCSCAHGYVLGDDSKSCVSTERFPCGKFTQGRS
Coagulation factor X, sequence (P00743 234-492 limits assumed): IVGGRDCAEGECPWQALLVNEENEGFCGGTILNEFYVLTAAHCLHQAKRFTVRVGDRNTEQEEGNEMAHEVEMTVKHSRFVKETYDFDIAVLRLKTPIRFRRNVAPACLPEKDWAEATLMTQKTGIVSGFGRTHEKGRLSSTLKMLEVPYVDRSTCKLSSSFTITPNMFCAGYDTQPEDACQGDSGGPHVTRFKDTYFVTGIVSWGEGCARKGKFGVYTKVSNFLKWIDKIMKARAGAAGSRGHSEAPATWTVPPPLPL

[4] = target: T2, Coagulation factor XII (Homo sapiens, UniProt P00748); assay: Inhibitory activity against Coagulation factor XII
T2 sequence (P00748 whole entry): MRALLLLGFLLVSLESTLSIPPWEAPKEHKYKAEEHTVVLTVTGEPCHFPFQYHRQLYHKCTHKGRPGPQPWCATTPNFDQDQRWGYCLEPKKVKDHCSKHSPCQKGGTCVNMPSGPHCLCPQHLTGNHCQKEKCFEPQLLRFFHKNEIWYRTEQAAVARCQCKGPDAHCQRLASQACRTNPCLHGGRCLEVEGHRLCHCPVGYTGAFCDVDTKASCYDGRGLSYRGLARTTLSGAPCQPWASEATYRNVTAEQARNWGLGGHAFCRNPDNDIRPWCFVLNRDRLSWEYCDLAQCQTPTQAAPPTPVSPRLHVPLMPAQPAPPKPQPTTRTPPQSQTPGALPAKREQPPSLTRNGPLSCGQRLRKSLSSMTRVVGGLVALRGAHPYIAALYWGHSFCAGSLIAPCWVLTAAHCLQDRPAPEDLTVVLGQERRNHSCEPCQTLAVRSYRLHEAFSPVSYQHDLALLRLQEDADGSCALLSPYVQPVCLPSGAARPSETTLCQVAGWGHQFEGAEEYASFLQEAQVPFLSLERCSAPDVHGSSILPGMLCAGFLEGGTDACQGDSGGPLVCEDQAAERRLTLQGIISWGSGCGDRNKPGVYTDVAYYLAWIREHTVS

[5] = Concentration for doubling of partial thromboplastin time; format: functional, Homo sapiens
[6] = Concentration for doubling of prothrombin time; format: functional, Homo sapiens
[7] = Concentration for doubling of thrombin time; format: functional, Homo sapiens
[8] = target: T3, Plasma kallikrein (Homo sapiens, UniProt P03952); assay: Inhibitory activity against plasma kallikrein (PK.); format: cell-free
T3 sequence (P03952 20-390 limits assumed): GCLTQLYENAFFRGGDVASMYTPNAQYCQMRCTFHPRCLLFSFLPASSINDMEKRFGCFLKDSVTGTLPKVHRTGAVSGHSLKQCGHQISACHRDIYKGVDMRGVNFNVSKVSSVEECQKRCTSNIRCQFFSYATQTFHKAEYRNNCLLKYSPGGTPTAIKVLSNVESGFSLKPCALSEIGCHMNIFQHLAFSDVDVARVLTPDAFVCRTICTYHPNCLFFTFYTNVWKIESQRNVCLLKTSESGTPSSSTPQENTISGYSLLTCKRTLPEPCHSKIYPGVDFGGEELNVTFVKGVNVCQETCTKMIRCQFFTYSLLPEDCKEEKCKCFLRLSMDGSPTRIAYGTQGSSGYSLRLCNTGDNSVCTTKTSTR
T3 sequence (P03952 391-638 limits assumed): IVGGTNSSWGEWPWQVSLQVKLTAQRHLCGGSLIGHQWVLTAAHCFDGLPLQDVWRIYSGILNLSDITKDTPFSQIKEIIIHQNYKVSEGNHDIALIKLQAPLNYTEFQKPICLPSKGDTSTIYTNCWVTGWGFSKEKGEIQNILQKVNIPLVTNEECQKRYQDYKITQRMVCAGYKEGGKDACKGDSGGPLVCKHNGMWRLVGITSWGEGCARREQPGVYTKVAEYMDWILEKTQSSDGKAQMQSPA

[9] = target: Plasminogen (Homo sapiens, UniProt P00747); assay: Inhibitory activity against Plasmin.
Plasminogen, sequence (P00747 97-580 limits assumed): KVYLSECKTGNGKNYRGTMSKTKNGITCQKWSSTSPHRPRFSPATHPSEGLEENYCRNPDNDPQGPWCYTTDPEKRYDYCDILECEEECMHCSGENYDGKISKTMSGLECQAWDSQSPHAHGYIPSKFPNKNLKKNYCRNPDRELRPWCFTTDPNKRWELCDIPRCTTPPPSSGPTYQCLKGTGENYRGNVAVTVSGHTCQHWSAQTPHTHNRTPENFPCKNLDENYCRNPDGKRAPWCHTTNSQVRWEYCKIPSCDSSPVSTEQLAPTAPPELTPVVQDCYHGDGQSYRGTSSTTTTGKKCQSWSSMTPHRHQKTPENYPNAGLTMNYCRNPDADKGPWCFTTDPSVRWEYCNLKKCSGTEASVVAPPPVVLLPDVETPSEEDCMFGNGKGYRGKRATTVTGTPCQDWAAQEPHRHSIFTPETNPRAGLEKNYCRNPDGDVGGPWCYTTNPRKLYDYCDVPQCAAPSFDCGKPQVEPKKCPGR
Plasminogen, sequence (P00747 581-810 limits assumed): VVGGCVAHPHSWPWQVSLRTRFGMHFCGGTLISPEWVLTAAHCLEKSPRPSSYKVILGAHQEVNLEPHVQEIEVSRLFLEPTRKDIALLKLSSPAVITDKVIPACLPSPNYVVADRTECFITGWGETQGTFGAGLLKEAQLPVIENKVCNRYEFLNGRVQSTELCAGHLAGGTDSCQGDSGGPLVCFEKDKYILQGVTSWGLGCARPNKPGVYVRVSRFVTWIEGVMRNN

[10] = target: Tissue-type plasminogen activator (Homo sapiens, UniProt P00750); assay: Inhibitory activity against single-chain tissue-type plasminogen activator (sc-tissue plasminogen activator)
Tissue-type plasminogen activator, sequence (P00750 whole entry): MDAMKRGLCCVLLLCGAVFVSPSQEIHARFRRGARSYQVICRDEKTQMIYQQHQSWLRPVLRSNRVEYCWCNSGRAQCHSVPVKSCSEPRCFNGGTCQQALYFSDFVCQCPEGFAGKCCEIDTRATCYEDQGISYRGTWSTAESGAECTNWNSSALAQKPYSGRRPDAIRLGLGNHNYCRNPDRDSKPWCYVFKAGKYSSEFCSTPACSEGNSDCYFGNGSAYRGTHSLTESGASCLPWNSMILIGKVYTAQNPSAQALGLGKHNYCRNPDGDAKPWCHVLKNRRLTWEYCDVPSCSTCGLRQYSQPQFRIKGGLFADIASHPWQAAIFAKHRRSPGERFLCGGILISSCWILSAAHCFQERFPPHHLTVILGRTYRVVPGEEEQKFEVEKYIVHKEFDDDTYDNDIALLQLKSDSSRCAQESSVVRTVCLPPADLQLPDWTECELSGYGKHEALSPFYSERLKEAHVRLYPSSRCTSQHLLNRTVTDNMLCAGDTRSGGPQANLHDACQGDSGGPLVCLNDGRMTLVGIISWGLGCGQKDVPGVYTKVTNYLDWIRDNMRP

[11] = target: T4, Urokinase-type plasminogen activator (Homo sapiens, UniProt P00749); assay: Inhibitory activity against urokinase (UK )
[12] = target: T5, Serine protease 1 (Bos taurus, UniProt P00760); assay: Inhibitory activity against trypsin
T5 sequence (P00760 whole entry): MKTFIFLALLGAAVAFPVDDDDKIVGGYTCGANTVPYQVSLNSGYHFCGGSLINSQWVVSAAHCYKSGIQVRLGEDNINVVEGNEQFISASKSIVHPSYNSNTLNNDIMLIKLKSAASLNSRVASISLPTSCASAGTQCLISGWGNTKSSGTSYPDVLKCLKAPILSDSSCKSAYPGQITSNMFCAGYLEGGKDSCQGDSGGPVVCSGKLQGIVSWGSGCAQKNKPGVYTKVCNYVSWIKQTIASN

[13] = target: T1, Prothrombin
[14] = target: T3, Plasma kallikrein; assay: Inhibitory activity against Kallikrein (PK)
[15] = target: T4, Urokinase-type plasminogen activator; assay: Inhibitory activity against UK.
[16] = 1 mg/kg was administered intravenously in anesthetized rats and the concentration in plasma was determined after 240 minutes.; settings: rat, iv
[17] = 1 mg/kg was administered intravenously in anesthetized rats and the concentration in plasma was determined after 30 minutes.; settings: rat, iv
[18] = 1 mg/kg was administered intravenously in anesthetized rats and the concentration in plasma was determined after 45 minutes.; settings: rat, iv
[19] = 1 mg/kg was administered intravenously in anesthetized rats and the concentration in plasma was determined after 5 minutes.; settings: rat, iv
[20] = 1 mg/kg was administered intravenously in anesthetized rats and the concentration in plasma was determined after 60 minutes.; settings: rat, iv
[21] = 1 mg/kg was administered intravenously in anesthetized rats and the concentration in plasma was determined after 90 minutes.; settings: rat, iv
[22] = 50 mg/kg was administered orally in anesthetized rats and the concentration in plasma was determined after 120 minutes.; settings: rat, po
[23] = 50 mg/kg was administered orally in anesthetized rats and the concentration in plasma was determined after 15 minutes.; format: ADME, organism-based; settings: rat, po, read-out: Activity
[24] = 50 mg/kg was administered orally in anesthetized rats and the concentration in plasma was determined after 180 minutes.; settings: rat, po
[25] = 50 mg/kg was administered orally in anesthetized rats and the concentration in plasma was determined after 30 minutes.; settings: rat, po
[26] = 50 mg/kg was administered orally in anesthetized rats and the concentration in plasma was determined after 45 minutes.; format: ADME, organism-based; settings: rat, po, read-out: Activity
[27] = 50 mg/kg was administered orally in anesthetized rats and the concentration in plasma was determined after 5 minutes.; format: ADME, organism-based; settings: rat, po, read-out: Activity
[28] = 50 mg/kg was administered orally in anesthetized rats and the concentration in plasma was determined after 60 minutes.; settings: rat, po
[29] = 1 mg/kg was administered intravenously in anesthetized rats and the concentration in plasma was determined after 120 minutes.; settings: rat, iv
[30] = 1 mg/kg was administered intravenously in anesthetized rats and the concentration in plasma was determined after 15 minutes.; settings: rat, iv
[31] = 1 mg/kg was administered intravenously in anesthetized rats and the concentration in plasma was determined after 180 minutes.; settings: rat, iv
[32] = 50 mg/kg was administered orally in anesthetized rats and the concentration in plasma was determined after 90 minutes.; format: ADME, organism-based; settings: rat, po, read-out: Activity
[33] = 1 mg/kg was administered intravenously in anesthetized rats and the concentration in plasma was determined after 2 minutes.; settings: rat, iv

- Ki [1]: 0.0025 µM
SMILES: CC1CCN(C(=O)[C@@H](Cc2cccc(C(=N)N)c2)NS(=O)(=O)c2ccc3ccccc3c2)CC1

SMILES: CN1CCN(C(=O)[C@@H](Cc2cccc(C(=N)N)c2)NS(=O)(=O)c2ccc3ccccc3c2)CC1
- Ki [2]: 94 µM
- Ki [3]: 19 µM
- Ki [4]: 280 µM
- IC50 [5]: 1.2 µM
- IC50 [6]: 1.8 µM
- IC50 [7]: 0.22 µM
- Ki [8]: 35 µM
- Ki [9]: 30 µM
- Ki [10]: > 1000 µM
- Ki [11]: 110 µM
- Ki [12]: 0.47 µM
- Ki [13]: 0.016 µM

SMILES: N=C(N)c1cccc(C[C@@H](NS(=O)(=O)c2ccc3ccccc3c2)C(=O)N2CCN(C=O)CC2)c1
- Ki [2]: 10.3 µM
- Ki [3]: 9.7 µM
- Ki [4]: 53 µM
- IC50 [5]: 0.35 µM
- IC50 [6]: 0.7 µM
- IC50 [7]: 0.063 µM
- Ki [14]: 3.3 µM
- Ki [9]: 3.3 µM
- Ki [10]: 110 µM
- Ki [15]: 34 µM
- Ki [12]: 0.073 µM
- Ki [13]: 0.023 µM

SMILES: CC(=O)N1CCN(C(=O)[C@@H](Cc2cccc(C(=N)N)c2)NS(=O)(=O)c2ccc3ccccc3c2)CC1
- concentration at 4 h [16]: < 40 ng/mL
- concentration at 0.5 h [17]: 270 ng/mL
- concentration at 0.75 h [18]: 170 ng/mL
- concentration at 5 min [19]: 2080 ng/mL
- concentration at 1 h [20]: 130 ng/mL
- concentration at 1.5 h [21]: 100 ng/mL
- concentration at 2 h [22]: 260 ng/mL
- concentration at 0.25 h [23]: 410 ng/mL
- concentration at 3 h [24]: 300 ng/mL
- concentration at 0.5 h [25]: 450 ng/mL
- concentration at 0.75 h [26]: 410 ng/mL
- concentration at 5 min [27]: 230 ng/mL
- concentration at 1 h [28]: 380 ng/mL
- concentration at 2 h [29]: 90 ng/mL
- concentration at 0.25 h [30]: 610 ng/mL
- concentration at 3 h [31]: < 40 ng/mL
- concentration at 1.5 h [32]: 270 ng/mL
- Ki [2]: 12 µM
- Ki [3]: 34 µM
- Ki [4]: 200 µM
- IC50 [5]: 0.28 µM
- IC50 [6]: 0.76 µM
- IC50 [7]: 0.062 µM
- Ki [14]: 15 µM
- Ki [9]: 5.2 µM
- Ki [10]: 410 µM
- Ki [15]: 32 µM
- Ki [12]: 0.044 µM
- concentration at 2 min [33]: 3550 ng/mL
